Several values for one entry are separate records, joined by “and”; a condition that tells them apart may be missing. Equal entries are not always repeated.
Legend:
[1] = target: RNA motif 5′GAG3′/3′C_C5′ (from RNA library C); experiment: In solution, fluorescence-based binding affinity assay
Protocol: (§1) Affinity of Selected RNA Motif-Small Molecule Interactions. The affinity of exemplar compounds that have inherent fluorescence was measured. […] . Binding affinities were confirmed using a label-free method, biolayer interferometry.
(§2) where n1 is the size of Population 1 (number of sequencing reads for a given RNA from RNA-seq analysis of the selected library), n2 is the size of Population 2 (number of sequencing reads for the same RNA from RNA-seq analysis of the starting library), p1 is the observed proportion of Population 1 (the number of reads for a given RNA from selected library/total number of reads), and p2 is the observed proportion for Population 2 (the number of reads for the same RNA in the starting library/total number of reads). Generation of Logos and DiffLogos: Zobs corresponding to the highest (enriched) 0.5% and lowest (discriminated against) 0.5% scores were analyzed to generate consensus sequences, or Logos. The resulting list of sequences were converted to position weight matrix (PWM) lists for each compound. “Enriched” and “discriminated” sequences were kept separate using JMP®, Version <13.2.1>. SAS Institute Inc., Cary, N.C., 1989-2007. The R package Difflogo,^16 which is part of Bioconductor, was utilized to create the sequence logos from PWM lists for each compound and visually compare the differences between them. Binding Affinity Measurements. Dissociation constants were determined using an in solution, fluorescence-based assay. […] Serial dilutions (1:2) of the small molecule were then completed in 1× Assay Buffer supplemented with 1 mM MgCl2. The solutions were incubated for 30 min at room temperature, transferred to a 96-well plate, and fluorescence intensity measured on a BioTek-FLx800 plate reader. The change in fluorescence intensity as a function of small molecule concentration was fit to a one site binding model per equation 3: […]
(§3) Effect of compounds on HCV replication. […] Cytotoxicity assays. […] Oligonucleotide profiling of target engagement in vitro. […] Primers can be found in Table 4. […] Inhibition of kinases. […] . Figure S7C).

[2] = target: RNA motif 5′UCCUU3′/3′AUUA5′ (non-binder); experiment: as above
Protocol: as §1, §2, §3

[3] = system: RNA library C (3×2 nucleotide asymmetric internal loops); experiment: 2DCS selection with RNA-seq and HiT-StARTS analysis (Zobs, Fitness Score); assay type: binding; set-up: key to Fitness Score: Zobs normalized so most significant interaction = 100
From the text: Identification of RNA-binding Small Molecules by 2DCS. […] We have previously validated the secondary structures formed by members of RNA libraries by enzymatic mapping^8, 12, 34. These discrete RNA motifs were selected because they are present in cellular RNAs. Due to the library-versus-library nature of these studies, they represent the largest screens completed to date, probing >52,000,000 interactions. Of the 1,987 compounds probed, 239 bound RNA (12.0%).
A final screen was then completed in which the 91 array-immobilized compounds were incubated with all five RNA motif libraries separately in the presence of oligonucleotide competitors F-J, d(AT)11 and d(GC)11. Oligonucleotides F-J mimic regions common to all library members, restricting binding to the randomized regions. (Note: oligonucleotide J was not used for hairpin selections.) After rigorous washing to remove unbound RNAs, bound RNAs were harvested and identified by RNA-seq. By completing selections under conditions of high oligonucleotides stringency (by use of excess competitor oligonucleotides), these studies identified small molecules that bound RNA motifs avidly. A challenge in the small molecule RNA-targeting area has been the development and identification of selective interactions between small molecules and RNAs. In myriad studies, 2DCS has defined selective RNA motif-small molecule interactions with varied affinities^11, 12, 35, 36.
Identification of Privileged RNA Space by RNA-Seq. Using RNA-seq, a large sequencing dataset was obtained for each pool of RNAs that were specifically bound to each small molecule. RNA libraries A, B, C, D, and E had at least 12.1-fold (average: 133.1±111.8), 6.7-fold (average: 80.8±78.7), 9.9-fold (average: 103.5±110.6), 7.2-fold (average: 75.7±65.6), and 6.0-fold (average: 36.3±31.6) coverage for each small molecule selection, respectively, as compared to the number of unique sequences within the corresponding RNA library. It was previously shown that at least 6-fold coverage is required to generate binding landscape maps^12. RNA-seq data were then analyzed by High Throughput Structure-Activity Relationships Through Sequencing (HiT-StARTS)^12 to identify the privileged RNA motifs that bind each small molecule. Briefly, the frequency of occurrence of a selected RNA was compared to the frequency of occurrence of the same RNA from RNA-seq analysis of the starting RNA library to account for biases arising during transcription and RT-PCR. This pooled population comparison affords the parameter Zobs, a metric of statistical confidence. A large, positive Zobs indicates a strong preference for binding the motif while a negative Zobs indicates a strong preference against binding the motif. A Fitness Score is assigned by normalizing the Zobs values to the most statistically significant small molecule-RNA interaction to 100. […] Structure-Activity Relationships (SAR). Next, the most privileged RNA motif binders and the most discriminated against RNA motifs (non-binders) for each compound selection was analyzed by generating LOGOS from the highest and lowest 0.5% of Zobs scores^37. By comparing the LOGOS for related compounds, or DiffLogos, SAR can be defined. Indeed, various hit compounds differ by a single functional group, including compounds A and B (FIG. 5). […] In contrast, the RNA motifs most hindered from binding compounds 1 and 2 (discriminated against) are quite different (FIG. 5B).
Oligonucleotides. All DNA oligonucleotides were purchased from Integrated DNA Technologies, Inc. (IDT) and used without further purification. RNA oligonucleotide competitors were purchased from Dharmacon and de-protected according to the manufacturer's standard procedure. All oligonucleotide solutions were prepared with NANOpure water. The RNA motif libraries were synthesized by in vitro transcription from the corresponding DNA template that was custom-mixed at the randomized positions to ensure equivalent representation of all four nucleotides. Compounds. […]

[4] = target: RNA motif 5′GAU3′/3′C_A5′ (from RNA library C); experiment: In solution, fluorescence-based binding affinity assay
Protocol: as §1, §2, §3

[5] = target: RNA motif 5′GCU3′/3′C_A5′ (from RNA library C); experiment: as above
Protocol: as §1, §2, §3

[6] = target: RNA motif 5′UCUAU3′/3′ACCA5′ (from RNA library C); experiment: as above
Protocol: as §1, §2, §3

[7] = system: BP-SLI RNA (mutated SL I); experiment: Oligonucleotide profiling in vitro, control RNA mutated to remove 8's binding site; assay type: biochemical, Hepatitis C virus; settings: complementary oligonucleotide
From the text: Application of an antisense agent (Table 4) and RNase H cleaves the RNA at the desired site. […] Additional control experiments were completed in which the RNA was mutated to remove 8's binding site and the corresponding complementary oligonucleotide to induce RNase H cleavage.
as §3

For `O=C(Nc1cccc(NC(=O)Nc2cc(C(=O)Nc3ccc(C4=NCCN4)cc3)ccc2C(=O)Nc2ccc(C3=NCCN3)cc2)c1)Nc1cc(C(=O)Nc2ccc(C3=NCCN3)cc2)ccc1C(=O)Nc1ccc(C2=NCCN2)cc1` [Compound 7], the Kd [1] was 410 ± 26 nM, the Kd [2] was 2080 ± 300 nM and the “Fitness Score” value ([3]; RNA motif 5′AAC3′/3′U_G5′) was 33. The Zobs ([3]; RNA motif 5′AAC3′/3′U_G5′) was 8.2, the “Fitness Score” value ([3]; RNA motif 5′GAG3′/3′C_C5′) was 73 and the Zobs ([3]; RNA motif 5′GAG3′/3′C_C5′) was 18.3. For the same compound, the Zobs ([3]; RNA motif 5′UCCAU3′/3′AUCA (non-binder)) was −2.8, the Zobs ([3]; RNA motif 5′UCCUU3′/3′AUUA5′ (non-binder)) was 1.1 and the “Fitness Score” value ([3]; RNA motif 5′UGU3′/3′G_A5′) was 47. For the same compound, the Zobs ([3]; RNA motif 5′UGU3′/3′G_A5′) was 11.8, the Zobs ([3]; RNA motif 5′UUA3′/3′A_U5′) was 25.2 and the “Fitness Score” value ([3]; RNA motif 5′UUA3′/3′A_U5′, Zobs normalized to most significant interaction = 100) was 100.
Compound `O=C(Nc1ccc(C2=NCCN2)cc1)c1cc(C(=O)Nc2ccc(C3=NCCN3)cc2)cc(C(=O)Nc2ccc(C3=NCCN3)cc2)c1` [Compound 8] has a Kd [4] of 600 ± 61 nM, a Kd [5] of 450 ± 47 nM and a Kd [6] of 5580 ± 440 nM. The “Fitness Score” value ([3]; RNA motif 5′GAU3′/3′C_A5′) was 87, the Zobs ([3]; RNA motif 5′GAU3′/3′C_A5′) was 11.8 and the “Fitness Score” value ([3]; RNA motif 5′GCU3′/3′C_A5′) was 79. For the same compound, the Zobs ([3]; RNA motif 5′GCU3′/3′C_A5′) was 10.8, the “Fitness Score” value ([3]; RNA motif 5′UCUAU3′/3′ACCA5′) was 45 and the Zobs ([3]; RNA motif 5′UCUAU3′/3′ACCA5′) was 6.1. For the same compound, the Zobs ([3]; RNA motif 5′UUA3′/3′A_U5′) was 13.6 and 9.5 and the “effect on antisense/RNase H cleavage of mutated RNA” value [7] was “the extent and pattern of cleavage were similar in the absence and the presence of compound 8”.

Reference: patent US20220119868A1, “PROFILING RNA-SMALL MOLECULE BINDING SITES WITH OLIGONUCLEOTIDES” (priority 2018, published 2022)
